Assays:
[1] = target: recombinant human farnesyl transferase (Homo sapiens, UniProt P49354+P49356); experiment: In vitro inhibition of ras farnesyl transferase; format: biochemical; settings: read-out: ID50, Inhibition of RAS farnesylation (concentration which gives 50% inhibition of FTase)
Procedure: In vitro inhibition of ras farnesyl transferase
The assay was conducted as described in Pompliano, et. al., Biochemistry 31, 3800 (1992) with the exception of utilizing recombinant human farnesyl transferase in place of the partially purified bovine enzyme described therein.

[2] = system: Ras farnesylation in the v-ras cell line; experiment: In vivo ras farnesylation assay (v-ras cell line); format: cell-based; settings: v-ras cells; 4 h pretreatment at 37° C., then 20 h labelling; read-out: IC50, Inhibition of Ras Farnesylation in the v-ras cell line
Procedure: In vivo ras farnesylation assay
The cell line used in this assay was the v-ras line, which expressed vital Ha-ras p21. The assay was performed essentially as described in DeClue, J. E. et. al., Cancer Research 51, 712-717, (1991). Cells in 10 cm dishes at 50-75% confluency were treated with the test compound (final concentration of solvent, methanol or dimethyl sulfoxide, was 0.1%). After 4 hours at 37° C., the cells were labelled in 3 ml methionine-free DMEM supplemeted with 10% regular DMEM, 2% fetal bovine serum and 400 μCi ^35 S!methionine (1000 Ci/mmol). After an additional 20 hours, the cells were lysed in 1 ml lysis buffer (1% NP40/20 mMHEPES, pH 7.5/5 mM MgCl2 /1 mM DTT/10 μg/ml aprotinen/2 μg/ml leupeptin/2 μg/ml antipain/0.5 mM PMSF) and the lysates cleared by centrifugation at 100,000×g for 45 min. Aliqouts of lysates containing equal numbers of acid-precipitable counts were bought to 1 ml with IP buffer (lysis buffer lacking DTT) and immunoprecipitated with the ras-specific monoclonal antibody Y13-259 (Furth, M. E. et. al., J. Virol. 43, 294-304, (1982)). Following a 2 hour antibody incubation at 4° C., 200 μl of a 25% suspension of protein A-Sepharose coated with rabbit anti rat IgG was added for 45 min. The immunoprecipitates were washed four times with IP was buffer ([…] HEPES, pH 7.5/1 mM EDTA/ 1% Triton X-100.0.5% deoxycholate/0.1%/SDS/0.1M NaCl) boiled in SDS-PAGE sample buffer and loaded on 13% acrylamide gels. When the dye front reached the bottom, the gel was fixed, soaked in Enlightening, dried and autoradiographed. The intensities of the bands corresponding to farnesylated and nonfarnesylated ras proteins were compared to determine the percent inhibition of farnesyl transfer to protein.

[3] = system: EMG-CoA reductase; settings: cited from earlier work

| Compound | IC50 [1] | IC50 [2] | also measured |
| --- | --- | --- | --- |
| CC[C@H](C)[C@@H](/C=C/[C@H](C(=O)N[C@@H](CCO)C(=O)O)C(C)C)NC[C@@H](N)CS [5(S)-2(R)-amino-3-mercaptopropyl-amino!-6(S)-methyl-2(R)-i-propyl-3,4-E-octenoyl-homoserine] | 3.5 nM |  |  |
| CCCC[C@H](/C=C/[C@@H](NC[C@@H](N)CS)[C@@H](C)CC)C(=O)N[C@@H](CCO)C(=O)O [5(S)-2(R)-amino-3-mercaptopropyl-amino!-6(S)-methyl-2(R)-n-butyl-3,4-E-octenoyl-homoserine] | 1.5 nM |  |  |
| CCCC[C@H](/C=C/[C@@H](NC[C@@H](N)CS)[C@@H](C)CC)C(=O)N[C@@H](CCSC)C(=O)O [5(S)-2(R)-amino-3-mercaptopropyl-amino!-6(S)-methyl-2(R)-n-butyl-3,4-E-octenoyl-methionine] | 2.5 nM |  |  |
| CC[C@H](C)[C@@H](/C=C/[C@@H](Cc1ccccc1)C(=O)N[C@H]1CCOC1=O)NC[C@@H](N)CS [5(S)-2(R)-amino-3-mercaptopropylamino!-6(S)-methyl-2(R)-benzyl-3,4-E-octenoyl-homoserine lactone] |  | 5000 to 10000 nM |  |
| CC[C@H](C)[C@@H](/C=C/[C@@H](Cc1ccccc1)C(=O)N[C@@H](CCSC)C(=O)OC)NC[C@@H](N)CS [5(S)-2(R)-amino-3-mercaptopropylamino!-6(S)-methyl-2(R)-benzyl-3,4-E-octenoyl-methionine, methyl ester] |  | 1000 nM |  |
| CC[C@H](C)[C@@H](/C=C/[C@@H](Cc1ccccc1)C(=O)N[C@@H](CCSC)C(=O)O)NC[C@@H](N)CS [5(S)-2(R)-amino-3-mercaptopropylamino!-6(S)-methyl-2(R)-benzyl-3,4-E-octenoyl-methionine] | 1.9 nM |  |  |
| CC[C@H](C)[C@@H](/C=C/[C@H](C(=O)N[C@H]1CCOC1=O)C(C)C)NC[C@@H](N)CS [5(S)-2(R)-amino-3-mercaptopropylamino!-6(S)-methyl-2(R)-i-propyl-3,4-E-octenoyl-homoserine lactone] |  | 1000 to 2500 nM |  |
| CC[C@H](C)[C@@H](/C=C/[C@H](C(=O)N[C@@H](CCSC)C(=O)OC)C(C)C)NC[C@@H](N)CS [5(S)-2(R)-amino-3-mercaptopropylamino!-6(S)-methyl-2(R)-i-propyl-3,4-E-octenoyl-methionine, methyl ester] |  | 100 nM |  |
| CC[C@H](C)[C@@H](/C=C/[C@H](C(=O)N[C@@H](CCSC)C(=O)O)C(C)C)NC[C@@H](N)CS [5(S)-2(R)-amino-3-mercaptopropylamino!-6(S)-methyl-2(R)-i-propyl-3,4-E-octenoyl-methionine] | 20 nM |  |  |
| CCCC[C@H](/C=C/[C@@H](NC[C@@H](N)CS)[C@@H](C)CC)C(=O)N[C@@H](CCSC)C(=O)OC [5(S)-2(R)-amino-3-mercaptopropylamino!-6(S)-methyl-2(R)-n-butyl-3,4-E-octenoyl-methionine, methyl ester] |  | 1000 nM |  |
| CCC[C@H](/C=C/[C@@H](NC[C@@H](N)CS)[C@@H](C)CC)C(=O)N[C@H]1CCOC1=O [5(S)-2(R)-amino-3-mercaptopropylamino!-6(S)-methyl-2(R)-n-propyl-3,4-E-octenoyl-homoserine lactone] |  | 5000 nM |  |
| CCC[C@H](/C=C/[C@@H](NC[C@@H](N)CS)[C@@H](C)CC)C(=O)N[C@@H](CCO)C(=O)O [5(S)-2(R)-amino-3-mercaptopropylamino!-6(S)-methyl-2(R)-n-propyl-3,4-E-octenoyl-homoserine] | 4 nM |  |  |
| CC(C)[C@H](/C=C/[C@@H](NC[C@@H](N)CS)C(C)C)C(=O)N[C@H]1CCOC1=O [5(S)-2(R)-amino-3-mercaptopropylamino!-6-methyl-2(R)-i-propyl-3,4-E-heptenoyl-homoserine lactone] |  | 1000 nM |  |
| CC(C)[C@H](/C=C/[C@@H](NC[C@@H](N)CS)C(C)C)C(=O)N[C@@H](CCO)C(=O)O [5(S)-2(R)-amino-3-mercaptopropylamino!-6-methyl-2(R)-i-propyl-3,4-E-heptenoyl-homoserine] | 5 nM |  |  |
| CC[C@H](C)C(=O)O[C@H]1CCC=C2C=C[C@H](C)[C@H](CC[C@@H]3C[C@@H](O)CC(=O)O3)[C@H]21 [compactin] |  |  | inhibition of EMG-CoA reductase [3]: inhibit EMG-CoA reductase |
| CC[C@H](C)C(=O)O[C@H]1C[C@@H](C)C=C2C=C[C@H](C)[C@H](CC[C@@H]3C[C@@H](O)CC(=O)O3)[C@H]21 [lovastatin] |  |  | inhibition of EMG-CoA reductase [3]: inhibit EMG-CoA reductase |

— patent publication US5504212A, “Inhibitors of farnesyl-protein transferase” (Merck & Co., Inc., priority 1992, dated 1996)
